Activity calls are given as the source filed them.
Assays:
[1] = target: Nonstructural protein 1 (Influenza A virus, UniProt Q194T2); assay type: functional, Influenza A virus (A/California/07/2009(H1N1))
[2] = microbe, parasite or virus in culture; assay type: functional; conditions: Mycobacterium tuberculosis
[3] = target: T1, Leucine aminopeptidase (Plasmodium falciparum 3D7, UniProt Q8IL11); experiment: P. falciparum M17LAP inhibitors, primary screen, biochemical, fluorogenic H-Leu-NHMec substrate, 1536-well (AID 1619); assay type: functional
T1 sequence (Q8IL11 whole entry): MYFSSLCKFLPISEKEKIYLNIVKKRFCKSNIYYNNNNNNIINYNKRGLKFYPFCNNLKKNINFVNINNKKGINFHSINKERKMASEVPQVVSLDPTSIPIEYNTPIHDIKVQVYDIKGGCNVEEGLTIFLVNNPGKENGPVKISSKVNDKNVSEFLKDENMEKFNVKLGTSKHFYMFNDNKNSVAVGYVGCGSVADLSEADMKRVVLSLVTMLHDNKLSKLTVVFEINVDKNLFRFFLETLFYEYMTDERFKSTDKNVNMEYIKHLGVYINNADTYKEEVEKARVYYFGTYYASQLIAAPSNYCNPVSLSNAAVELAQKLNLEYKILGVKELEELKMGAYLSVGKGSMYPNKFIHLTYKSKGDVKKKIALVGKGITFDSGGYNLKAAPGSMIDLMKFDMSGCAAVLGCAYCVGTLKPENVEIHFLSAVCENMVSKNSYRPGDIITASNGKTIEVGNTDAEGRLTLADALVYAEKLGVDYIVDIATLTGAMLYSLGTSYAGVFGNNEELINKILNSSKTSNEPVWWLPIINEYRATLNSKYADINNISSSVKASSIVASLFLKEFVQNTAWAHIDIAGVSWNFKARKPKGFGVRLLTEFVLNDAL

[4] = target: T2, Aminopeptidase N (Plasmodium falciparum FcB1/Columbia, UniProt O96935); experiment: malaria alanyl aminopeptidase activity blockers – biochemical, fluorogenic H-Leu-NHMec substrate, 1536-well (AID 1445); set-up: species or system Plasmodium falciparum 3D7, 3D7
T2 sequence (O96935 whole entry): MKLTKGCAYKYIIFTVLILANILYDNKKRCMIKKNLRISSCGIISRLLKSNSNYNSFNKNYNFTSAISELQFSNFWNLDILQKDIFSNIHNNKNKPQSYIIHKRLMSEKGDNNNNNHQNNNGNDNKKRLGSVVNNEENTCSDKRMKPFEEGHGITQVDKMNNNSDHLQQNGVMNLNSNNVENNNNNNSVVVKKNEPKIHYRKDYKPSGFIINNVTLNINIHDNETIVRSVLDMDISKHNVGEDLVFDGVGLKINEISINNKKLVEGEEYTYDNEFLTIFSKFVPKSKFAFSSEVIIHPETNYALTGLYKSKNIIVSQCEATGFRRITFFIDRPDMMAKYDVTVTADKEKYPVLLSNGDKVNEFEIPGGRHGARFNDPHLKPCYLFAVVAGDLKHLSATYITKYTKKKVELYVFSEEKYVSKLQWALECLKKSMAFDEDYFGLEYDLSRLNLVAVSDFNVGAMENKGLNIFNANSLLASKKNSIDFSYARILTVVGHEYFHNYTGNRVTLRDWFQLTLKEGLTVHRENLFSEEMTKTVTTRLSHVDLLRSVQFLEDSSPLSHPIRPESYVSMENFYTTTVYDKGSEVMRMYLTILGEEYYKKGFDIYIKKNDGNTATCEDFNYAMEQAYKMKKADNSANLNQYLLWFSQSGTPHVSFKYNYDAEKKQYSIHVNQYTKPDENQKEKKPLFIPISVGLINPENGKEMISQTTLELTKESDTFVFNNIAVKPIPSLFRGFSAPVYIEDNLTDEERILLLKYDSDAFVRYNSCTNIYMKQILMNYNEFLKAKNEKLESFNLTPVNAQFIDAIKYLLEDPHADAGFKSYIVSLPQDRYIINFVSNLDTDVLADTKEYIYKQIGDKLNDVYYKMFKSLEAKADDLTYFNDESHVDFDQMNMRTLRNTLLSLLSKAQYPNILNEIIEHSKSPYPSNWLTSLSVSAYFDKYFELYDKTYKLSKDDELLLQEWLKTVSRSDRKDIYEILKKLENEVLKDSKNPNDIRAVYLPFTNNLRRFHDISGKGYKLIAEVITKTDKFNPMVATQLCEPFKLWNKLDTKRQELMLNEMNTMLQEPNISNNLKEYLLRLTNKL

[5] = target: T3, Fatty acid synthase (Homo sapiens, UniProt P49327); experiment: inhibition of human FAS-TE enzyme activity – biochemical, kinetic fluorescence intensity, dose response (AID 624326); assay type: functional;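 further: rate of fluorescence rise from hydrolysis of a fluorogenic O-methyl fluorescein ester substrate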
T3 sequence (P49327 whole entry): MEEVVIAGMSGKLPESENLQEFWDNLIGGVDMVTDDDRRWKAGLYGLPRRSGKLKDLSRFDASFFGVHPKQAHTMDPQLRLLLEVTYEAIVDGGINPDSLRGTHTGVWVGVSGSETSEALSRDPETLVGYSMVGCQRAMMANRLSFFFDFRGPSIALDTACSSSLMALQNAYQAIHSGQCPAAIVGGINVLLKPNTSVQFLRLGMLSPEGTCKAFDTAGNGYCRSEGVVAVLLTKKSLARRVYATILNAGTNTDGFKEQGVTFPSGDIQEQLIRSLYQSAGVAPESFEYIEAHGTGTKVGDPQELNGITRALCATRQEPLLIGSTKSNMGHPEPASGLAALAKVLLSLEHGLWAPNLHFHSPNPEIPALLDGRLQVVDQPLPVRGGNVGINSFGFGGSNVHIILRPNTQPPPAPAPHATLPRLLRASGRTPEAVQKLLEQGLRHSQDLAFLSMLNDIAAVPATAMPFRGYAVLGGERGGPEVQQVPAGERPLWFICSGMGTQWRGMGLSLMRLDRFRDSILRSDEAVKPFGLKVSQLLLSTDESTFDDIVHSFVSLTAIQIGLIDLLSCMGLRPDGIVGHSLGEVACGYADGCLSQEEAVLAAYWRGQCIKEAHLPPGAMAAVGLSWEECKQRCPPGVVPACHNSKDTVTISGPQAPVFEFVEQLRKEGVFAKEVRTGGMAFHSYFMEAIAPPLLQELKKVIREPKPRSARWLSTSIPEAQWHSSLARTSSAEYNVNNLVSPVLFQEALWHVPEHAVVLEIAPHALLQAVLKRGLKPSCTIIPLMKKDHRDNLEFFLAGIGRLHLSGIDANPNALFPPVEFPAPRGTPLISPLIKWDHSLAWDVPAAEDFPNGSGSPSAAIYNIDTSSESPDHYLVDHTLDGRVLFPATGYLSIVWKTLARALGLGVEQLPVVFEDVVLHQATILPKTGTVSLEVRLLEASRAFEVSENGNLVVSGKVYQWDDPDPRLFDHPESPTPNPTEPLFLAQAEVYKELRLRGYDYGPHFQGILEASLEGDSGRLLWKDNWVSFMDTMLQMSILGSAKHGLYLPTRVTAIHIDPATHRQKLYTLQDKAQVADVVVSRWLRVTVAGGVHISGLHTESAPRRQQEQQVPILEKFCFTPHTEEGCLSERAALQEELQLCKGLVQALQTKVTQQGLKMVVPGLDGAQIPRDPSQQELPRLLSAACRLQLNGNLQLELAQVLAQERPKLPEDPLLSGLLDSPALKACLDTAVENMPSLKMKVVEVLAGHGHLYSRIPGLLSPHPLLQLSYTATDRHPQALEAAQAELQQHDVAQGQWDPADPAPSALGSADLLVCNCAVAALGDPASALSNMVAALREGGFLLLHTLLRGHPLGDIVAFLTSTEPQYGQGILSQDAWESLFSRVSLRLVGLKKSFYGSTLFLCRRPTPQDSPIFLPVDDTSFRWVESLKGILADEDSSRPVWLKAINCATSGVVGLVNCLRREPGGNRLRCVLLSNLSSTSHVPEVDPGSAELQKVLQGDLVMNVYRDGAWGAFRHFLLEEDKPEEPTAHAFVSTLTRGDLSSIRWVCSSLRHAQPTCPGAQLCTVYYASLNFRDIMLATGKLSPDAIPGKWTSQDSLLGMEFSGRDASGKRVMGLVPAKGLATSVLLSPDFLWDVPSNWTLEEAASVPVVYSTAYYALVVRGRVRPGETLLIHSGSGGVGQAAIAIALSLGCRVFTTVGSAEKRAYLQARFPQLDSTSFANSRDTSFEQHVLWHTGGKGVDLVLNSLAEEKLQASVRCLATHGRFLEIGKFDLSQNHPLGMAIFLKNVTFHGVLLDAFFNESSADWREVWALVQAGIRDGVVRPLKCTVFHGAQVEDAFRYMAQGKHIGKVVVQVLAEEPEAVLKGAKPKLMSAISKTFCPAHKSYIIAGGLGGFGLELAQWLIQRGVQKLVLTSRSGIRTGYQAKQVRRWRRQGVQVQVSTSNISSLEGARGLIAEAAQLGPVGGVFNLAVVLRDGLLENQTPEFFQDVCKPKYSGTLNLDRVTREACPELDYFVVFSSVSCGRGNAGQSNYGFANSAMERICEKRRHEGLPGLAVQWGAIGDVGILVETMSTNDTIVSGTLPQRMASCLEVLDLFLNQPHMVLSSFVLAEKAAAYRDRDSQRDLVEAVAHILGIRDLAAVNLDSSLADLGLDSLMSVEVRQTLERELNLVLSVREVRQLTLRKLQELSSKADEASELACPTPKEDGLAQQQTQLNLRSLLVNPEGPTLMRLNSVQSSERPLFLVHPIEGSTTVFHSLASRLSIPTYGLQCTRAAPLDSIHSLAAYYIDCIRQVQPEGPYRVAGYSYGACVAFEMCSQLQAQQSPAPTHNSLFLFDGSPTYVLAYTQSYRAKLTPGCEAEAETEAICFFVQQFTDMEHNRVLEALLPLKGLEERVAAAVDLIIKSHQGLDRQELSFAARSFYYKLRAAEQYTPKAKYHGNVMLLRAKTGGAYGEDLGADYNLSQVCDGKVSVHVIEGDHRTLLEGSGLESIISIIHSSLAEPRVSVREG

[6] = target: T3, Fatty acid synthase; experiment: inhibition of human FAS-TE enzyme activity – biochemical, endpoint fluorescence intensity, uHTS hits, dose response (AID 624327); assay type: functional;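 further: fluorescence from hydrolysis of an O-methyl fluorescein acyl ester substrate by the enzyme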
[7] = target: Prothrombin (Homo sapiens, UniProt P00734); experiment: Thrombin 1536 HTS Dose Response Confirmation. [Related pubchem assays: 1046 (Thrombin 1536 HTS; hits were confirmed in this assay)]; assay type: functional
[8] = viability of uninfected HEp-2 cells – cell-based, HTS, cytotoxicity control for RSV inhibitor project, dose response (AID 2410); assay type: functional; conditions: human respiratory syncytial virus
[9] = target: T4, RNA-binding protein pos-1 (Caenorhabditis elegans, UniProt G5EF15); experiment: disruptors of C. elegans POS-1 RNA interaction – biochemical, fluorescence polarization, dose response (AID 1964);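 further: purified POS-1 fused to maltose binding protein made in E. coli; potency of compounds blocking POS-1 binding to fluorescent RNA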
T4 sequence (G5EF15 whole entry): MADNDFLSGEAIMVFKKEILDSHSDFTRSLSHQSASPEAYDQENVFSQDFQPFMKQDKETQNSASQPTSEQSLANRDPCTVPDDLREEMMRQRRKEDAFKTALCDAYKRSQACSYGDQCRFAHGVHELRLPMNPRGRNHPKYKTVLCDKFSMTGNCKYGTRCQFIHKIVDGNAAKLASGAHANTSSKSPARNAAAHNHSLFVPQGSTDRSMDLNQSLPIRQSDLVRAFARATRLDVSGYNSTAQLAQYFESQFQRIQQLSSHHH

[10] = target: T5, Zinc finger protein mex-5 (Caenorhabditis elegans, UniProt Q9XUB2); experiment: potency of MEX-5 RNA-binding blockers – biochemical, C. elegans, fluorescence polarization, dose response (AID 1960)
T5 sequence (Q9XUB2 whole entry): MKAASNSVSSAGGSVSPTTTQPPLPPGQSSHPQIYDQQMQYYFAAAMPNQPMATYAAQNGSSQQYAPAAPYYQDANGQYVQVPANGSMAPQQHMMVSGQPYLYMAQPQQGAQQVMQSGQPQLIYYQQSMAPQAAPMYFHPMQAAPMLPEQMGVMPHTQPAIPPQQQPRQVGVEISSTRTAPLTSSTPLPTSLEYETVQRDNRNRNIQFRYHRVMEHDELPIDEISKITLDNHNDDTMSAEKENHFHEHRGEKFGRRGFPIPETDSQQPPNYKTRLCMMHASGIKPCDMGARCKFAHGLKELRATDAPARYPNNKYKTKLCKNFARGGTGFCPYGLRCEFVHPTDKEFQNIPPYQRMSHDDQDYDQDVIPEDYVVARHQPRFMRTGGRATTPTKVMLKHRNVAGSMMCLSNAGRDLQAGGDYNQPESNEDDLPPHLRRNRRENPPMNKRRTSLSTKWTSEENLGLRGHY

[11] = viability loss in HeLa cells – cytotoxicity control for MgcRacGAP inhibitor project, dose response (AID 624300); assay type: functional
[12] = target: T6, Rac GTPase-activating protein 1 (Homo sapiens, UniProt Q9H0H5); experiment: blockers of MgcRacGAP-driven Rac1 GTP hydrolysis – biochemical, ADP Hunter fluorescence, primary and confirmatory, confirmation (AID 624330); assay type: functional
T6 sequence (Q9H0H5 whole entry): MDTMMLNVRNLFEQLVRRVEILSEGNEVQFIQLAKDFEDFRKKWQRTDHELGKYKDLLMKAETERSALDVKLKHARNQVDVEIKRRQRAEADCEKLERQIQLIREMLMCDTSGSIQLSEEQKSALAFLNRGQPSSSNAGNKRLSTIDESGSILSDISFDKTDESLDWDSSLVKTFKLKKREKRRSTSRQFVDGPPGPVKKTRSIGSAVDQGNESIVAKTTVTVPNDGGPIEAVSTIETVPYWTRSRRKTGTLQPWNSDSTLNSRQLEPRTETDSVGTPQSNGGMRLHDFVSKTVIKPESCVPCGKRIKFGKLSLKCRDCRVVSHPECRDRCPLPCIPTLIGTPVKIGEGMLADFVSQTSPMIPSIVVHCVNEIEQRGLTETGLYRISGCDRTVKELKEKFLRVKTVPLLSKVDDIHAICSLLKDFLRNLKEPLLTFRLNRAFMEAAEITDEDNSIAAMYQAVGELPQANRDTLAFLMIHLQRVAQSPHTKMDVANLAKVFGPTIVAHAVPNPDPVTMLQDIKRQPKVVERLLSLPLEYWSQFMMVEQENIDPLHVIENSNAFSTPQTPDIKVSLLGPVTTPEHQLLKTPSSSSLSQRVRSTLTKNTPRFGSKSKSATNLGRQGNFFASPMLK

[13] = target: FAD-linked sulfhydryl oxidase ALR (Homo sapiens, UniProt P55789); experiment: ALR-catalysed DTT oxidation blockers – biochemical, H2O2 detection, luminescence, cherry-pick, dose response (AID 493248)
Sequence of FAD-linked sulfhydryl oxidase ALR (P55789 whole entry): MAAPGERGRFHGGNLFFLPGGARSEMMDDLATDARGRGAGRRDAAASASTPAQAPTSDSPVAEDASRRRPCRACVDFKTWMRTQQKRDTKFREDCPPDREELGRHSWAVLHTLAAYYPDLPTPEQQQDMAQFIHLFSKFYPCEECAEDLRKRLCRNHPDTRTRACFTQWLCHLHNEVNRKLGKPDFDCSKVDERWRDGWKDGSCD

[14] = target: Cytochrome P450 3A4 (Homo sapiens, UniProt P08684);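 further: CYP3A4 tested as one member of a cytochrome P450 panel screen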
Sequence of Cytochrome P450 3A4 (P08684 whole entry): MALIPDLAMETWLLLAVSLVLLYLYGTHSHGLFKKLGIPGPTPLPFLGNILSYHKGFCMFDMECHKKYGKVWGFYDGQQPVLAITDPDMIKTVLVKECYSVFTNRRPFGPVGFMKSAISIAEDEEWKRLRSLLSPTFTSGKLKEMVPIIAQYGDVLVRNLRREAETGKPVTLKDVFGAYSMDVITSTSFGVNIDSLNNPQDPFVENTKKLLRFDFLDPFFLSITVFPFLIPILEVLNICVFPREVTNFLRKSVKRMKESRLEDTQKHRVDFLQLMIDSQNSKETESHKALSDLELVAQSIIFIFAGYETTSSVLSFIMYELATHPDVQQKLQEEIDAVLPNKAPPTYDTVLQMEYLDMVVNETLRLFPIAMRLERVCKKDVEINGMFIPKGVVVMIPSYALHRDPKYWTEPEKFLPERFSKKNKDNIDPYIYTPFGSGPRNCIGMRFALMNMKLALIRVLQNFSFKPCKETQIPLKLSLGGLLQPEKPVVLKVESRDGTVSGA

[15] = P. falciparum Dd2 growth inhibitors, dose response, SYBR Green, cherry-picked samples (AID 1159567); assay type: functional, cell-based
[16] = target: T7, Heat shock factor protein 1 (Mus musculus, UniProt P38532); experiment: decrease of HSF1-responsive luciferase luminescence – cell-based, NIH3T3, dose retest, confirmation (AID 2382); assay type: functional;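 further: NIH3T3 fibroblasts with HSF1-driven luciferase reporter stressed by proteasome inhibitor MG132; luminescence from HSF1-driven luciferase expression after 8 hours of MG132 stress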
T7 sequence (P38532 whole entry): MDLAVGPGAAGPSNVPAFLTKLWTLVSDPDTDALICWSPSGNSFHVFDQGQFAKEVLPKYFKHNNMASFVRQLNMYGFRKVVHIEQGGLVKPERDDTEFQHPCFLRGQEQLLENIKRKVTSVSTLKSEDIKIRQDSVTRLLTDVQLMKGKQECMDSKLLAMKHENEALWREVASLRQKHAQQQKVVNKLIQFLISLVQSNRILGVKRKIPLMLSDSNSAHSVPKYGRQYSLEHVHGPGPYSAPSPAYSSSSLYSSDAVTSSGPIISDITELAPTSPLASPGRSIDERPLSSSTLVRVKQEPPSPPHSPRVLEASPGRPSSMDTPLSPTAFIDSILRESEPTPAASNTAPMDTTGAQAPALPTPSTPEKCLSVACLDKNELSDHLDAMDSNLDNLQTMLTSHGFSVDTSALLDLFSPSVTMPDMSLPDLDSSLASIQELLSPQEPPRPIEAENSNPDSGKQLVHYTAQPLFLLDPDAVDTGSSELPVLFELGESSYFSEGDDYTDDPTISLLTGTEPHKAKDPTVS

[17] = target: Glyceraldehyde-3-phosphate dehydrogenase (Homo sapiens, UniProt P04406)
Sequence of Glyceraldehyde-3-phosphate dehydrogenase (P04406 whole entry): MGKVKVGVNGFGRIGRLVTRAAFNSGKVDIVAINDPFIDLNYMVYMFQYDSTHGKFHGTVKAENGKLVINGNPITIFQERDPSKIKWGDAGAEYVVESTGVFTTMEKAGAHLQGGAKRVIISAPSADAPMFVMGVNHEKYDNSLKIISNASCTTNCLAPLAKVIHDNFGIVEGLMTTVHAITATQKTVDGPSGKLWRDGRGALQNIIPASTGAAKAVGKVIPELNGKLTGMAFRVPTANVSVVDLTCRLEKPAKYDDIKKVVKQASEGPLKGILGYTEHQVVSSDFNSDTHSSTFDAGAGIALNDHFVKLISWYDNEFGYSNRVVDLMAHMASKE

Sequence of Nonstructural protein 1 (Q194T2 whole entry): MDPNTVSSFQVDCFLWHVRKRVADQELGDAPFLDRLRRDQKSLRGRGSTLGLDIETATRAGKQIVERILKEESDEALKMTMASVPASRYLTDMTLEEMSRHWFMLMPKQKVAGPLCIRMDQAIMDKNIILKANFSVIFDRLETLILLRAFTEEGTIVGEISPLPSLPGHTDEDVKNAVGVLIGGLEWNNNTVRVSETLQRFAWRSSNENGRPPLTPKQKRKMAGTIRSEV

SMILES: Cc1ccc(C(c2nnnn2Cc2cccs2)N2CCN(Cc3ccc4c(c3)OCO4)CC2)cc1 (configuration not stated)
- IC50 [1]: > 100 µM (active)
- CC50 [2]: > 40 µM (active)

SMILES: COc1cccc(/C=N/NC(=S)Nc2cccc(C(=O)O)c2)c1
- IC50 [3]: 15.7 µM (active)

SMILES: O=C(CN1CC(c2ccccc2)CC1=O)N/N=C/c1cc(Br)ccc1O (configuration not stated)
- IC50 [4]: 11.8 µM (active)
- IC50 [5]: 4.11 µM (active)
- IC50 [6]: 3.61 µM (active)

SMILES: CCCC(=O)n1nc(-c2cccnc2)nc1NCc1ccc(OC)cc1
- IC50 [7]: 0.0883 µM (active)

SMILES: Cc1cccn2c(=O)c3cc(S(=O)(=O)c4ccccc4)c(=N)n(Cc4cccnc4)c3nc12
- CC50 [8]: > 50 µM (active)
- EC50 [9]: 8.88 µM (inconclusive)
- EC50 [10]: 18.8 µM (inconclusive)

SMILES: COc1ccc(-c2ccnc3nc(Sc4ncc(C(F)(F)F)cc4Cl)nn23)cc1
- CC50 [8]: 36.7 µM (active)

SMILES: CCn1c(/C=C/c2ccc(O)cc2)nc2ccccc2c1=O
- CC50 [11]: 100 µM (active)
- IC50 [12]: 33.7 µM (active)
- AC50 [13]: 3.35 µM (active)

SMILES: COc1ccc(NC(=O)CC2COc3ccccc3O2)c(OC)c1 (configuration not stated)
- IC50 [3]: 7.18 µM (active)

SMILES: CCOC(=O)CCNC(=O)N1CCCC(CNS(=O)(=O)c2cccs2)C1 (configuration not stated)
- IC50 [7]: > 50 µM (not active)

SMILES: CSc1nc(N)nc(-c2cccs2)c1C#N
- CC50 [8]: > 25 µM (active)
- AC50 [14]: 25.1 µM (inconclusive)

SMILES: Cc1ccc2nc3c(nc2c1C)C(O)=C3O
- IC50 [4]: 48.5 µM (active)

SMILES: O=C(CN1CCC(NC(=O)c2ccccc2F)CC1)Nc1ccc2c(c1)OCO2
- IC50 [4]: 34 µM (active)

SMILES: COc1ccc2c3c(n(C)c2c1)[C@H](CO)N(C(=O)CC1CC1)CC31CCN(Cc2nccs2)CC1
- AC50 [15]: 3.93 µM (active)

SMILES: O=C(NCc1ccc2c(c1)OCO2)c1cnc2ccc(S(=O)(=O)N3CCOCC3)cc2c1O
- IC50 [7]: 0.845 µM (active)

SMILES: O=C(N/N=C/c1coc2ccccc2c1=O)c1cccc([N+](=O)[O-])c1
- IC50 [3]: 35.2 µM (active)

SMILES: Nc1nc(-c2cccnc2)nn1C(=O)c1ccc(F)cc1
- IC50 [7]: 2.01 µM (active)

SMILES: CCOc1cc(S(=O)(=O)NCc2ccc(OC)cc2)c(OCC)cc1-n1cnnn1
- IC50 [7]: > 50 µM (not active)

SMILES: Cc1cc(C)n(CCOc2ccc(Cl)cc2Cl)n1
- CC50 [8]: > 50 µM (active)

SMILES: Nc1ccccc1C(=O)N=Nc1[nH]c(N)c2ccccc12
- IC50 [1]: 20.7 µM (active)

SMILES: O=S(=O)(c1ccc(F)cc1)N1C[C@@H]2N[C@H](C1)[C@H]2c1ccc(-c2ccc(F)cc2)cc1
- AC50 [15]: 2.1 µM (active)

SMILES: COc1ccc(/C=N/Nc2ccc(C(=O)O)cc2)cc1Br
- EC50 [16]: < 0.16 µM (active)
- AC50 [13]: 0.837 µM (active)
- IC50 [3]: 23.4 µM (active)

SMILES: O=C1C(Cl)=C(N2CCN(c3ncccn3)CC2)C(=O)N1c1ccnc(Cl)c1
- IC50 [17]: > 50 µM (inconclusive)
